Laboratory results published in patent publication US11401278B2, “Macrocyclic indole derivatives” (The Broad Institute, Inc., priority 2017, dated 2022).
Several values for one entry are separate records, joined by “and”; a condition that tells them apart may be missing. Identical values can stand only once. Counter-ions that a name gives are not always drawn. Like-named read-outs stand apart in the source and are kept apart here.

What was measured:
[1] = tested on: HMC-1-8; test: Antiproliferation assay (Assay 7), HMC-1-8; assay type: cell-based; settings: CellTiter-Glo, 72 hours, several values per example, read-out: Antiproli HMC-1-8 [M] IC50
Procedure, shortened: (§1)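 Cells were treated with compound for 72 hours at 37° C in a humidified incubator, and viability was then read by CellTiter-Glo luminescence. A parallel reference plate was read at time zero (day 0) in the same way for baseline determination.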

[2] = tested on: SUDHL10; test: Induction of cytotoxicity (Assay 6), SUDHL10; settings: read-out: Cytotox SUDHL10 [M] (median) IC50, CellTiter-Glo, 5 hours, SUDHL10
[3] = molecular target: BCL-2 (Homo sapiens (Human), UniProt P10415); test: Protein-protein interaction assay BCL-2/Bad BH3 peptide (BCL-2 assay, TR-FRET); assay type: binding; settings: His-BCL-2 / Bad BH3 peptide, median
Method: Assay 3 Protein-Protein Interaction Assay: BCL-2/Bad BH3 Peptide (BCL-2 Assay)
The dose-dependent inhibition by the compounds described in this invention of the interaction between BCL-2 and the BH3 domain of Bad (both human) was determined using a steady state binding competition assay with time-resolved fluorescence energy transfer (TR-FRET) readout. For that purpose BCL-2 (amino acids 1-211, C-terminal fused to a hexahistidine (6×His) tag (SEQ ID 5) and a synthetic Bad BH3-derived peptide of sequence Biotin-PEG2-PEG2-NLWAAQRYGRELRR-Nle-SDEFVDSFKK-amide (SEQ ID 4) served as protein receptor and tracer ligand respectively. The recombinant BCL-2 protein (expressed in E. coli) was purchased from BPS Bioscience (San Diego, Calif., USA). The Bad BH3-derived peptide can be obtained from e.g. Biosyntan (Berlin, Germany).
In the assay 11 different concentrations of each compound (0.1 nM, 0.33 nM, 1.1 nM, 3.8 nM, 13 nM, 44 nM, 0.15 μM, 0.51 μM, 1.7 μM, 5.9 μM and 20 μM) were typically measured as duplicates in the same microtiter plate. For that, 100-fold concentrated DMSO solutions were prepared by serial dilutions (1:3.4) of a 2 mM stock solution in a clear, 384-well microtiter plate (Greiner Bio-One, Frickenhausen, Germany). From there, 50 nl were transferred in a dark test plate (Greiner Bio-One, Frickenhausen, Germany). The assay was initiated by addition of 2 μl of a 2.5-fold concentrated His-BCL-2 solution (usually for a 1 nM end concentration in 5 μl reaction volume) in aqueous assay buffer [50 mM Tris/HCl pH 7, 100 mM sodium chloride (NaCl), 50 mM potassium fluoride (KF), 0.005% Tween-20, 2 mM DTT, 0.1% bovine gamma globulin (BGG)] to the compounds in the assay plate. This was followed by a 10-minute incubation step at 22° C. for pre-equilibration of the putative complex between His-BCL-2 and the compounds. After that, 3 μl of a 1.67-fold concentrated solution (in assay buffer) consisting of Bad BH3-derived peptide (1 nM end concentration) and TR-FRET detection reagents [1.67 nM anti-His-Eu cryptate and 1.67 nM streptavidin-XL665 (both from Cisbio Bioassays, Codolet, France)], were added.
The mixture was incubated in the dark for one hour at 22° C. and then overnight at 4° C. The formation of BCL-2/Bad complexes was determined by measuring the resonance energy transfer of the anti-His-Eu-cryptate antibody to the streptavidin-XL665 present in the reaction. For that purpose, the fluorescence emission at 620 nm and 665 nm after excitation at 330-350 nm was measured in a TR-FRET measuring instrument, for instance a Rubystar or a Pherastar (both from BMG Lab Technologies, Offenburg, Germany) or a Viewlux (Perkin-Elmer). The ratio of the emission at 665 nm and at 622 nm was used as indicator of the amount of BCL-2/Bad complexes present.
The resulting data (ratio) were normalized, taking 0% inhibition as the mean value of control measurements (usually 32 data points) where all reagents were included. In this case 50 nl DMSO were used instead of compounds. A 100% inhibition corresponded to the mean value of control measurements (usually 32 data points) where all reagents except BCL-2 were included. IC50 values were determined by regression analysis based on a 4 parameter equation (minimum, maximum, IC50, Hill; Y=Max+(Min−Max)/(1+(X/IC50)^HiII) using the Screener Software (Genedata).

[4] = tested on: MV-4-11; test: Antiproliferation assay (Assay 7), MV-4-11; assay type: cell-based; settings: CellTiter-Glo, several values per example
Procedure, shortened: as §1

[5] = Homo sapiens, MV4-11, 72 h, read-out: Antiproli MV-4-11 [M] IC50
[6] = 72 hours, read-out: Antiproli MV-4-11 [M] IC50

Sequence of BCL-2 (P10415 other isoform, or with tags, fused parts or gaps): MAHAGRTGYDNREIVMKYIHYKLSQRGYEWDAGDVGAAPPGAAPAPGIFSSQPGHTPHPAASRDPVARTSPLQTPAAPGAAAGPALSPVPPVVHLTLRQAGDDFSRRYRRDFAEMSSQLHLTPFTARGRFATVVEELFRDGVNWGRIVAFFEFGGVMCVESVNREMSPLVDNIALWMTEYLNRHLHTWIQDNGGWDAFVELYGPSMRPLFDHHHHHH

## CCc1c2c(nn1C)C(CCN1CCOCC1)N(C)S(=O)(=O)CCCn1c(C(=O)O)c(CCCOc3cccc4cc(F)ccc34)c3ccc(Cl)c-2c31 (racemic) [Example 73, (rac)-(4-chloro-3-ethyl-7-{3-[(6-fluoronaphthalen-1-yl)oxy]propyl}-2,14-dimethyl-15-[2-(morpholin-4-yl)ethyl]-13,13-dioxo-10,11,12,13,14,15-hexahydro-2H-13lambda^6-pyrazolo[3′,4′:4,5][1,2,8]thiadiazacycloundecino[6,7,8-hi]indole-8-carboxylic acid (Racemate 1)]
[1]
  IC50: 1e-06 M

## Cc1c2c(nn1C)CN(C)S(=O)(=O)CCCn1c(C(=O)O)c(CCCOc3cccc4ccccc34)c3ccc(F)c-2c31 (racemic) [Example 26, (rac)-13-Fluoro-8,11,12-trimethyl-1-(3-(naphthalen-1-yloxy)propyl)-5,6,9,11-tetrahydro-4H,8H-pyrazolo[3′,4′:4,5][1]thia[2,8]diazacycloundecino[6,7,8-hi]indole-2-carboxylic acid 7,7-dioxide]
[2]; Homo sapiens, SU-DHL10, 5 h
  IC50: 3.4e-06 M
[3]
  IC50: > 20 µM
[4]; [5]
  IC50: 5.17e-07 M

## CCc1c2c(nn1C)CN(C)S(=O)(=O)CCCn1c(C(=O)O)c(CCCOc3ccc(F)c4ccccc34)c3ccc(F)c-2c31 (racemic) [Example 35, (rac)-12-Ethyl-13-fluoro-1-(34(4-fluoronaphthalen-1-yl)oxy)propyl)-8,11-dimethyl-5,6,9,11-tetrahydro-4H,8H-pyrazolo[3′,4′:4,5][1]thia[2,8]diazacycloundecino[6,7,8-hi]indole-2-carboxylic acid 7,7-dioxide]
[2]; Homo sapiens, SU-DHL10, 5 h
  IC50: 2.7e-06 M
[3]
  IC50: > 20 µM
[4]; [6]
  IC50: 8.18e-06 M
[4]; [5]
  IC50: 4.34e-06 M

## Cc1cc(OCCCc2c(C(=O)O)n3c4c(c(F)ccc24)-c2c(nn(C)c2C)CN(C)S(=O)(=O)CCC3)cc(C)c1Cl (racemic) [Example 28, (rac)-1-(3-(4-Chloro-3,5-dimethylphenoxy)propyl)-13-fluoro-8,11,12-trimethyl-5,6,9,11-tetrahydro-4H,8H-pyrazolo[3′,4′:4,5][1]thia[2,8]diazacycloundecino[6,7,8-hi]indole-2-carboxylic acid 7,7-dioxide]
[2]; Homo sapiens, SU-DHL10, 5 h
  IC50: 8e-06 M
[3]
  IC50: > 20 µM
[4]; [5]
  IC50: 7.54e-06 M

## Cc1c2c(nn1C)CN(CCN1CCOCC1)S(=O)(=O)CCCn1c(C(=O)O)c(CCCOc3cccc4ccccc34)c3cccc-2c31 (single isomer, unassigned; enantiomer 2) [Example 3, 2,3-Dimethyl-14-[2-(morpholin-4-yl)ethyl]-7-{3-[(naphthalen-1-yl)oxy]propyl}-13,13-dioxo-10,11,12,13,14,15-hexahydro-2H-13λ^6-pyrazolo[3′,4′:4,5][1,2,8]thiadiazacycloundecino-[6,7,8-hi]indole-8-carboxylic acid-N-ethylethanamine salt (Enantiomer 2)]
[2]
  IC50: > 3.3e-05 M
[3]
  IC50: > 20 µM
[4]; 72 hours, listed as 03, read-out: Antiproli MV-4-11 [M] IC50
  IC50: 1.54e-05 M

## CCc1c2c(nn1C)CN(C)S(=O)(=O)CCCn1c(C(=O)O)c(CCCOc3cccc4c3CCCC4)c3ccc(F)c-2c31 (racemic) [Example 34, (rac)-12-Ethyl-13-fluoro-8,11-dimethyl-1-(3-((5,6,7,8-tetrahydronaphthalen-1-yl)oxy)propyl)-5,6,9,11-tetrahydro-4H,8H-pyrazolo[3′,4′:4,5][1]thia[2,8]diazacycloundecino[6,7,8-hi]indole-2-carboxylic acid 7,7-dioxide]
[2]; Homo sapiens, SU-DHL10, 5 h
  IC50: 2.4e-06 M
[3]
  IC50: > 20 µM
[4]; [5]
  IC50: 4.83e-06 M

## Cc1c2c(nn1C)CN(C)S(=O)(=O)CCCn1c(C(=O)O)c(CCCOc3cccc4cc(F)ccc34)c3ccc(F)c-2c31 (racemic) [Example 25, (rac)-13-Fluoro-1-(3-((6-fluoronaphthalen-1-yl)oxy)propyl)-8,11,12-trimethyl-5,6,9,11-tetrahydro-4H,8H-pyrazolo[3′,4′:4,5][1]thia[2,8]diazacycloundecino[6,7,8-hi]indole-2-carboxylic acid 7,7-dioxide]
[2]; Homo sapiens, SU-DHL10, 5 h
  IC50: 2e-06 M
[3]
  IC50: > 20 µM and 51 µM and 46 µM
[4]; [5]
  IC50: 1.73e-06 M

## Cc1c2c(nn1C)CN(C)S(=O)(=O)CCCn1c(C(=O)O)c(CCCOc3cccc4c3CCC4)c3ccc(F)c-2c31 (racemic) [Example 27, (rac)-1-(3-((2,3-Dihydro-1H-inden-4-yl)oxy)propyl)-13-fluoro-8,11,12-trimethyl-5,6,9,11-tetrahydro-4H,8H-pyrazolo[3′,4′:4,5][1]thia[2,8]diazacycloundecino[6,7,8-hi]indole-2-carboxylic acid 7,7-dioxide]
[2]; Homo sapiens, SU-DHL10, 5 h
  IC50: 2.1e-06 M
[3]
  IC50: > 20 µM
[4]; [5]
  IC50: 8.61e-07 M

## CCc1c2c(nn1C)CN(CCCN1CCOCC1)S(=O)(=O)CCCn1c(C(=O)O)c(CCCOc3cccc4ccccc34)c3cccc-2c31 (racemic) [Example 15, (rac)-12-Ethyl-11-methyl-8-(3-morpholinopropyl)-1-(3-(naphthalen-1-yloxy)propyl)-4,5,6,8,9,11-hexahydropyrazolo[3′,4′:4,5][1,2,8]thiadiazacycloundecino[6,7,8-hi]indole-2-carboxylic acid 7,7-dioxide 2,2,2-trifluoroacetic acid salt]
[2]; Homo sapiens, SU-DHL10, 5 h
  IC50: 6.3e-06 M
[3]
  IC50: > 20 µM
[4]; [6]
  IC50: 1.04e-05 M
[4]; [5]
  IC50: 9.37e-06 M

## Cc1c2c(nn1C)CN(C)S(=O)(=O)CCCn1c(C(=O)O)c(CCCOc3cccc4ccccc34)c3ccc(Cl)c-2c31 (racemic) [Example 4, (rac)-4-Chloro-2,3,14-trimethyl-7-{3-[(naphthalen-1-yl)oxy]propyl}-13,13-dioxo-10,11,12,13,14,15-hexahydro-2H-13λ^6-pyrazolo[3′,4′:4,5][1,2,8]thiadiazacycloundecino-[6,7,8-hi]indole-8-carboxylic acid]
[2]
  IC50: 1.2e-06 M
[3]
  IC50: > 20 µM
[4]; 72 hours, listed as 04, read-out: Antiproli MV-4-11 [M] IC50
  IC50: 1.58e-06 M and 1.47e-06 M and 1.25e-06 M

## Cc1c2c(nn1C)CN(C)S(=O)(=O)CCCn1c(C(=O)O)c(CCCOc3cccc4c3CCCC4)c3ccc(F)c-2c31 (racemic) [Example 29, (rac)-13-Fluoro-8,11,12-trimethyl-1-(3-((5,6,7,8-tetrahydronaphthalen-1-yl)oxy)propyl)-5,6,9,11-tetrahydro-4H,8H-pyrazolo[3′,4′:4,5][1]thia[2,8]diazacycloundecino[6,7,8-hi]indole-2-carboxylic acid 7,7-dioxide]
[2]; Homo sapiens, SU-DHL10, 5 h
  IC50: 3.8e-06 M
[3]
  IC50: > 20 µM
[4]; [5]
  IC50: 5.86e-06 M

## CCc1c2c(nn1C)CN(C)S(=O)(=O)CCCn1c(C(=O)O)c(CCCOc3cc(C)c(Cl)c(C)c3)c3ccc(Cl)c-2c31 [Example 22, (rac)-13-Chloro-1-(3-(4-chloro-3,5-dimethylphenoxy)propyl)-12-ethyl-8,11-dimethyl-4,5,6,8,9,11-hexahydropyrazolo[3′,4′:4,5][1,2,8]thiadiazacycloundecino[6,7,8-hi]indole-2-carboxylic acid 7,7-dioxide]
[2]; Homo sapiens, SU-DHL10, 5 h
  IC50: 3.6e-06 M
[3]
  IC50: > 20 µM
[4]; [5]
  IC50: 2.41e-06 M
